Laboratory results taken from patent publication US20100143381A1, “LYSOPHOSPHATIDIC ACID RECEPTOR TARGETING FOR LUNG DISEASE” (priority 2007, published 2010).
Entries after “also recorded” stand apart in the source; their conditions may differ.

Key:
[1] = system: primary mouse lung fibroblasts; assay: Fibroblast chemotaxis induced by BAL from mice on Day 5 post-bleomycin (modified Boyden chamber); assay type: cell-based
Protocol: Bronchoalveolar lavage (BAL) samples were obtained by lung lavage using two 0.5 ml aliquots of PBS. These samples were then provided for analysis of: i) chemoattractant activity, ii) LPA; iii) total protein; and iv) D-dimer concentrations. These BAL samples were centrifuged at 3000×g for 20 min at 4° C., and the supernatants transferred to siliconized low-binding eppendorf tubes (PGC Scientifics) for subsequent analysis.
(§1) Lungs from unchallenged C57BL/6, LPA1^−/− or littermate wild type mice were digested for 45 minutes at 37° C. in DMEM with 0.14 U/ml Liberase Blenzyme 3 (Roche), and 60 μg/ml DNAse 1 (Sigma), passed through a 70 μm filter, centrifuged at 540×g at 4° C. and plated in tissue culture flasks in DMEM with 15% (vol/vol) fetal bovine serum (FBS, Sigma). Cells were passaged when subconfluent following harvest with trypsin-EDTA (Cellgro®). To ensure that cultures contained almost purely fibroblasts, cells were used for experiments at passage 3 or higher.
After being serum-starved in DMEM without FBS overnight, subconfluent primary lung fibroblasts were harvested with non-enzymatic Cell Dissociation Solution (Sigma) to avoid possible proteolysis of surface chemoattractant receptors by trypsin. Harvested cells, at 5.0×10^5 cells/ml in 50 μl of DMEM, were placed in the top of a 48-well modified Boyden microchemotaxis chamber (NeuroProbe). Duplicate 30 μl aliquots of either: i) 18:1 LPA (Avanti Polar Lipids) or PDGF-BB (R&D Systems) in DMEM with 0.1% fatty acid-free bovine serum albumin (Sigma); or ii) BAL, or BAL fractions, diluted 1:4 in DMEM, were placed in the bottom wells of the chamber and separated from the cells by a 8-μm-pore, polyvinylpyrrolidone-free polycarbonate filter (Osmonics) that had been coated with fibronectin (Sigma). The apparatus was incubated at 37° C. and 5% CO2 for 3 hours, and cells migrating across the filter and adhering to the bottom side of the filter were stained with a commercially modified Wright's stain (Hema 3 stain set, Fisher Diagnostics) and counted, after cells remaining on the top side of the filter had been scraped off. […]

[2] = system: primary mouse lung fibroblasts; assay: PDGF-induced fibroblast chemotaxis (specificity control); assay type: cell-based
Protocol: as §1
(§2) After being serum-starved in DMEM without FBS overnight, subconfluent primary lung fibroblasts were harvested with non-enzymatic Cell Dissociation Solution (Sigma) to avoid possible proteolysis of surface chemoattractant receptors by trypsin. Harvested cells, at 5.0×10^5 cells/ml in 50 μl of DMEM, were placed in the top of a 48-well modified Boyden microchemotaxis chamber (NeuroProbe). Duplicate 30 μl aliquots of either: i) 18:1 LPA (Avanti Polar Lipids) or PDGF-BB (R&D Systems) in DMEM with 0.1% fatty acid-free bovine serum albumin (Sigma); or ii) BAL, or BAL fractions, diluted 1:4 in DMEM, were placed in the bottom wells of the chamber and separated from the cells by a 8-μm-pore, polyvinylpyrrolidone-free polycarbonate filter (Osmonics) that had been coated with fibronectin (Sigma). The apparatus was incubated at 37° C. and 5% CO2 for 3 hours, and cells migrating across the filter and adhering to the bottom side of the filter were stained with a commercially modified Wright's stain (Hema 3 stain set, Fisher Diagnostics) and counted, after cells remaining on the top side of the filter had been scraped off. Data from these experiments is presented as chemotactic indices, i.e. the number of cells migrating in response to BAL divided by the number of cells migrating to media controls.

[3] = system: human fetal lung fibroblasts (HFL1 cells); assay: Fibroblast chemotaxis induced by BAL samples from human IPF patients; assay type: cell-based; settings: 1 μM Ki16425; FIG. 8d
Protocol: After being serum-starved in DMEM without FBS overnight, subconfluent primary lung fibroblasts were harvested with non-enzymatic Cell Dissociation Solution (Sigma) to avoid possible proteolysis of surface chemoattractant receptors by trypsin. Harvested cells, at 5.0×10^5 cells/ml in 50 μl of DMEM, were placed in the top of a 48-well modified Boyden microchemotaxis chamber (NeuroProbe). […] The apparatus was incubated at 37° C. and 5% CO2 for 3 hours, and cells migrating across the filter and adhering to the bottom side of the filter were stained with a commercially modified Wright's stain (Hema 3 stain set, Fisher Diagnostics) and counted, after cells remaining on the top side of the filter had been scraped off. […]
BAL samples were recovered from IPF patients and normal controls following instillation of sterile 0.9% saline by flexible fiberoptic bronchoscopy, performed both at the Instituto Nacional de Enfermedades Respiratorias and the Massachusetts General Hospital (MGH), as previously described. […] Cells growing at passage 3 or higher were analyzed as primary human BAL fibroblasts.

LPA1, LPA3, LPA2 = settings: literature (Ohta et al. 2003; Heise et al. 2001); cited from earlier work
[4] = system: sphingosine 1-phosphate receptors; settings: literature (Ohta et al. 2003); cited from earlier work
[5] = system: LPA-activated chloride channel; settings: elevated levels; human lung fibroblasts; literature (Yin et al. 2005); cited from earlier work
[6] = system: primary mouse lung fibroblasts; assay: LPA-induced fibroblast chemotaxis; assay type: cell-based; settings: for effect of albumin on LPA-induced fibroblast chemotaxis: 0.1% fatty acid-free BSA, C57Bl/6 lung fibroblasts, FIG. 9b
Protocol: as §1, §2

Cc1noc(-c2ccc(CSCCC(=O)O)cc2)c1NC(=O)OC(C)c1ccccc1Cl (stereo not drawn) [Ki16425]
effect on fibroblast chemotaxis induced by D5 post-bleomycin BAL ([1]; 1 μM Ki16425, C57BL fibroblasts, FIG. 5b): significantly inhibited | effect on PDGF-induced fibroblast chemotaxis ([2]; 1 μM Ki16425, 10^−8 or 10^−7 M PDGF, FIG. 5b): not affected; also recorded: similar; also recorded: did not affect | effect on chemotaxis of HFL1 cells to BAL samples from IPF patients [3]: reduced chemotaxis; also recorded: significantly inhibited | receptor subtype rank order of inhibition of LPA-induced responses (LPA1, LPA3, LPA2): LPA1≧LPA3>>LPA2 | effects on cellular responses mediated by sphingosine 1-phosphate receptors [4]: without appreciable effects

CCCCCCCC/C=C\CCCCCCCC(=O)N[C@@H](COP(=O)(O)O)Cc1ccc(OCc2ccccc2)cc1 [VPC12249]
effect on fibroblast chemotaxis induced by D5 post-bleomycin BAL ([1]; 100 μM VPC12249, C57BL/6 fibroblasts, FIG. 10): reduced chemotaxis; also recorded: significantly inhibited | effect on PDGF-induced fibroblast chemotaxis ([2]; 100 μM VPC12249, PDGF 10^−9 M, FIG. 10): did not affect; also recorded: similar; also recorded: not affected | receptor subtype rank order of inhibition of LPA-induced responses (LPA1, LPA3, LPA2): LPA1≧LPA3>>LPA2

dioctyl-glycerol pyrophosphate
effect on activation of LPA-activated chloride channel [5]: blocked

fatty acid-free BSA: fatty acid-free bovine serum albumin (Sigma)
effect of albumin on LPA-induced fibroblast chemotaxis [6]: potentiated | effect of albumin on LPA-induced fibroblast chemotaxis ([6]; listed as methanol extracted fatty acid-free albumin): significantly potentiated

lysophosphatidic acid [LPA]
fibroblast chemotactic activity of LPA ([6]; LPA bound to albumin, FIG. 1h): chemotactic; also recorded: potent fibroblast chemoattractant

pertussis toxin [PTX]
effect of PTX pretreatment on BAL-induced fibroblast chemotaxis ([1]; PTX-pretreatment of fibroblasts, D5 BAL, FIG. 1b): inhibited chemotaxis; also recorded: completely inhibited | effect of PTX pretreatment on PDGF-induced fibroblast chemotaxis ([2]; PTX-pretreatment of fibroblasts, FIG. 1b, 1i): not inhibited | effect of PTX pretreatment on LPA-induced fibroblast chemotaxis ([6]; PTX-pretreatment, LPA 10^−9-10^−7 M, FIG. 1i): inhibited chemotaxis; also recorded: reduced
